Assay results as given in patent US20180066031A1, “ENZYMATICALLY-CLEAVABLE PEPTIDE AMPHIPHILES” (The University of Chicago, priority 2016, published 2018).

Target: T1, Recombinant human liver cathepsin-B (Homo sapiens, UniProt P07858)
T1 construct: purchased Sigma Aldrich
Assay: Cathepsin-B cleavage testing of peptide-AMC substrates
Format: biochemical
Conditions: for AMC fluorescence intensity change over time following addition of catB: 1 mM peptide in activation buffer pH 5, emission 440 nm
Protocol: Peptide-AMC: Recombinant human liver cathepsin-B (Sigma Aldrich) was used for the in vitro experiments. 0.25 μM DTT used in 0.25 μM HEPES in PBS (pH 5) as activation buffer. Peptides were dissolved in activation buffer to a final concentration as 1 mM. 0.5 μL of catB enzyme or vehicle control was added into the peptide solution. Plate reader analysis with Tecan Infinite M200 PRO plate reader (Mannedorf, Switzerland) with triplicates of each sample were performed in 96 well plates. The intensity of the excited dye at 388 nm was measured at 440 nm. Dual dye-labeled peptide on resin: CatB and activation buffer were prepared as described above. Dye-labeled peptides were again left on the resin. Resin was washed with methanol, dried in a vacuum overnight, and then immersed in PBS (pH 7.4) for 1 hour at 37° C. PBS was then drained followed by addition of 1 mL activation buffer and 5 μL of catB for 100 mg of resin. Control testing was performed in the same solution without the addition of catB. Supernatant was collected after 3 hours and 24 hours. The florescence intensity of triplicates of each sample was measured with plate reader FAM (λexc=485 nm, λem=535 nm) and Tamra (λexc=520 nm, λem=620 nm).
A variety of enzyme-cleavable peptide sequences used in antibody-drug and peptide-drug conjugates were tested for efficacy in the systems herein (Ref. B35, B40-B43; incorporated by reference in their entireties).
The experimentally cleavable VC-PABA sequence and a control, non-cleavable triple glycine (GGG) linker, were conjugated to a 7-amino-4-methylcoumarin (AMC) dye, useful in studying protease activity and specificity (VC-PABA-AMC and GGG-AMC) (FIGS. 9A and 9B) (Ref. B45; incorporated by reference in its entirety). The electron group of the AMC fluorophore is localized, and thus remains quenched, when linked to the VC-PABA or GGG peptide substrate. When the covalent bond between the peptide and AMC is cleaved, this group de-localizes resulting in fluorescence detected at 440 nm (excitation: 348 nm) allowing for real-time measurement of enzyme/substrate kinetics. […]

Substance	AMC fluorescence intensity change over time following addition of catB	catB cleavage efficacy among tested enzyme-cleavable peptide sequences (comparison of linker sequences)
Glycine-Glycine-Glycine (GGG)-AMC [GGG-AMC, reference compound]	Neither GGG-AMC or GG-PABA-AMC showed any change in fluorophore intensity	
valine-citrulline [VC]		fastest and most complete cleavage
Valine-Citrulline-Para(aminobenzoicacid) (VC-PABA)-AMC [VC-PABA-AMC]	rapidly increased	
